Source: PubChem BioAssay AID192 (DTP/NCI, 2004)
Toxic doses and inconclusive results are not listed. How the source made its calls: active means survival T/C of 150% or more; inactive means T/C below 125% in these data.

Test system: BDF1 mice, B16 melanoma ip, median survival T/C
Assay: NCI In Vivo Anticancer Drug Screen. Data for tumor model B16 Melanoma (intraperitoneal) in B6D2F1 (BDF1) mice
Conditions: endpoint: median survival time, higher = longer survival
In short: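 Each result divides a survival or tumor-size measurement in the compound-treated group by the same measurement in the vehicle group.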

[1] = dose: 25.0 mg/kg/injection, schedule: Q01DX009 (ip), vehicle: saline with Tween-80
[2] = dose: 50.0 mg/kg/injection, schedule: Q01DX009 (ip), vehicle: saline with Tween-80
[3] = dose: 100.0 mg/kg/injection, schedule: Q01DX009 (ip), vehicle: saline with Tween-80
[4] = dose: 12.5 mg/kg/injection, schedule: Q01DX009 (ip), vehicle: saline
[5] = dose: 25.0 mg/kg/injection, schedule: Q01DX009 (ip), vehicle: saline
[6] = dose: 50.0 mg/kg/injection, schedule: Q01DX009 (ip), vehicle: saline
[7] = dose: 100.0 mg/kg/injection, schedule: Q01DX009 (ip), vehicle: saline
[8] = dose: 200.0 mg/kg/injection, schedule: Q01DX009 (ip), vehicle: saline with Tween-80
[9] = dose: 100.0 mg/kg/injection, schedule: Q01DX009 (ip), vehicle: Klucel (hydroxypropylcellulose) (HPC)
[10] = dose: 200.0 mg/kg/injection, schedule: Q01DX009 (ip), vehicle: Klucel (hydroxypropylcellulose) (HPC)
[11] = dose: 400.0 mg/kg/injection, schedule: Q01DX009 (ip), vehicle: Klucel (hydroxypropylcellulose) (HPC)

Measured: T/C

O=C(O)COc1ccc(OCC(=O)O)cc1
inactive: dose: 0.75 mg/kg/injection, schedule: Q01DX009 (ip), vehicle: Klucel (hydroxypropylcellulose) (HPC) 89 % of control | dose: 1.5 mg/kg/injection, schedule: Q01DX009 (ip), vehicle: Klucel (hydroxypropylcellulose) (HPC) 89 % of control

CC1=C(/C=C/C(C)=C/C=C/C(C)=C/C=O)C(C)(C)CCC1
inactive: dose: 16.0 mg/kg/injection, schedule: Q01DX005 (ip), vehicle: DMSO 94 % of control | dose: 32.0 mg/kg/injection, schedule: Q01DX005 (ip), vehicle: DMSO 88 % of control | dose: 64.0 mg/kg/injection, schedule: Q01DX005 (ip), vehicle: DMSO 89 % of control

Nc1nc(=S)c2n[nH]nc2[nH]1
inactive: dose: 12.5 mg/kg/injection, schedule: Q01DX009 (ip), vehicle: saline with Tween-80 96 % of control | [1] 108 % of control | [2] 113 % of control | [3] 88 % of control

CC1=C(C)C(=O)O[C@@H]([C@](C)(O)[C@]2(O)CC[C@@]3(O)[C@@H]4C[C@H]5O[C@]56[C@@H](O)C=CC(=O)[C@]6(C)[C@H]4CC[C@]23C)C1
inactive: dose: 2.0 mg/kg/injection, schedule: Q01DX005 (ip), vehicle: saline + alcohol 117 % of control | dose: 2.0 mg/kg/injection, schedule: Q01DX005 (iv), vehicle: saline + alcohol 99 % of control | dose: 4.0 mg/kg/injection, schedule: Q01DX001 (ip), vehicle: saline + alcohol 113 % of control | dose: 4.0 mg/kg/injection, schedule: Q01DX001 (iv), vehicle: saline + alcohol 103 % of control | dose: 4.0 mg/kg/injection, schedule: Q01DX005 (iv), vehicle: saline + alcohol 97 % of control | dose: 4.0 mg/kg/injection, schedule: Q01DX005 (oral), vehicle: saline + alcohol 103 % of control | dose: 4.0 mg/kg/injection, schedule: Q01DX009 (oral), vehicle: saline + alcohol 90 % of control | dose: 8.0 mg/kg/injection, schedule: Q01DX001 (ip), vehicle: saline + alcohol 113 % of control | dose: 8.0 mg/kg/injection, schedule: Q01DX001 (iv), vehicle: saline + alcohol 114 % of control | dose: 8.0 mg/kg/injection, schedule: Q01DX001 (oral), vehicle: saline + alcohol 97 % of control | dose: 8.0 mg/kg/injection, schedule: Q01DX005 (iv), vehicle: saline + alcohol 95 % of control | dose: 8.0 mg/kg/injection, schedule: Q01DX005 (oral), vehicle: saline + alcohol 103 % of control | dose: 8.0 mg/kg/injection, schedule: Q01DX009 (oral), vehicle: saline + alcohol 95 % of control | dose: 16.0 mg/kg/injection, schedule: Q01DX001 (iv), vehicle: saline + alcohol 92 % of control | dose: 16.0 mg/kg/injection, schedule: Q01DX001 (oral), vehicle: saline + alcohol 99 % of control | dose: 16.0 mg/kg/injection, schedule: Q01DX005 (ip), vehicle: saline + alcohol 116 % of control | dose: 16.0 mg/kg/injection, schedule: Q01DX005 (iv), vehicle: saline + alcohol 92 % of control | dose: 16.0 mg/kg/injection, schedule: Q01DX005 (oral), vehicle: saline + alcohol 104 % of control | dose: 16.0 mg/kg/injection, schedule: Q01DX009 (oral), vehicle: saline + alcohol 94 % of control | dose: 32.0 mg/kg/injection, schedule: Q01DX001 (ip), vehicle: saline + alcohol 116 % of control | dose: 32.0 mg/kg/injection, schedule: Q01DX001 (iv), vehicle: saline + alcohol 101 % of control | dose: 32.0 mg/kg/injection, schedule: Q01DX001 (oral), vehicle: saline + alcohol 103 % of control | dose: 32.0 mg/kg/injection, schedule: Q01DX005 (iv), vehicle: saline + alcohol 99 % of control | dose: 32.0 mg/kg/injection, schedule: Q01DX005 (oral), vehicle: saline + alcohol 90 % of control | dose: 32.0 mg/kg/injection, schedule: Q01DX009 (oral), vehicle: saline + alcohol 104 % of control | dose: 64.0 mg/kg/injection, schedule: Q01DX001 (iv), vehicle: saline + alcohol 105 % of control | dose: 64.0 mg/kg/injection, schedule: Q01DX001 (oral), vehicle: saline + alcohol 101 % of control | dose: 64.0 mg/kg/injection, schedule: Q01DX005 (oral), vehicle: saline + alcohol 97 % of control | dose: 64.0 mg/kg/injection, schedule: Q01DX009 (oral), vehicle: saline + alcohol 101 % of control | dose: 128.0 mg/kg/injection, schedule: Q01DX001 (oral), vehicle: saline + alcohol 105 % of control

CC(Br)C(=O)NCC(=O)O (stereo not given)
inactive: [4] 101 % of control | [5] 90 % of control | [2] 95 % of control | [6] 101 % of control

CCCNCCN
inactive: [5] 109 % of control | [6] 116 % of control | [7] 96 % of control

Cc1cc(O)c(C(C)C)cc1S(=O)(=O)O (tested in a mixture with another compound)
inactive: [2] 98 % of control | [8] 100 % of control

COC(=O)/C=C/N1C(=O)c2ccccc2C1=O
inactive: [9] 91 % of control | dose: 135.0 mg/kg/injection, schedule: Q01DX009 (ip), vehicle: Klucel (hydroxypropylcellulose) (HPC) 90 % of control | [10] 95 % of control | dose: 300.0 mg/kg/injection, schedule: Q01DX009 (ip), vehicle: Klucel (hydroxypropylcellulose) (HPC) 95 % of control | [11] 91 % of control

CCCCCCCCCCCCCCCC(=O)N(CCC#N)CCCCCCCCCN(CCC#N)C(=O)CCCCCCCCCCCCCCC
inactive: dose: 12.5 mg/kg/injection, schedule: Q04DX003 (ip), vehicle: Klucel (hydroxypropylcellulose) (HPC) 88 % of control | dose: 25.0 mg/kg/injection, schedule: Q04DX003 (ip), vehicle: Klucel (hydroxypropylcellulose) (HPC) 90 % of control

CN(C)N=Nc1ccc(C(=O)O)cc1
inactive: [5] 113 % of control | [6] 119 % of control

CCOc1ccc(NC(=O)c2cccc(C(=O)Nc3ccc(OCC)cc3)c2)cc1
inactive: [9] 103 % of control | [10] 93 % of control | [11] 86 % of control

CC(CC(C)O)=NCCN=C(C)CC(C)O.[Ni] (stereo not given)
inactive: dose: 1.5 mg/kg/injection, schedule: Q04DX003 (ip), vehicle: saline with Tween-80 108 % of control | dose: 2.0 mg/kg/injection, schedule: Q04DX003 (ip), vehicle: saline with Tween-80 100 % of control | dose: 3.0 mg/kg/injection, schedule: Q04DX003 (ip), vehicle: saline with Tween-80 94 % of control | dose: 4.5 mg/kg/injection, schedule: Q04DX003 (ip), vehicle: saline with Tween-80 86 % of control

CCOc1ccc(C2NC(=O)c3ccccc3N2)cc1 (stereo not given)
inactive: [9] 105 % of control | [10] 98 % of control | [11] 94 % of control

N#Cc1cccnc1.NCCNCCN.[Br-].[Pt+4]
inactive: [4] 100 % of control | [5] 94 % of control | [6] 99 % of control | [7] 99 % of control | dose: 200.0 mg/kg/injection, schedule: Q01DX009 (ip), vehicle: saline 89 % of control

OCC1OC(O)C(O)C(O)C1O (stereo not given)
inactive: dose: 500.0 mg/kg/injection, schedule: Q01DX009 (ip), vehicle: saline 98 % of control | dose: 1000.0 mg/kg/injection, schedule: Q01DX009 (ip), vehicle: saline 93 % of control | dose: 2000.0 mg/kg/injection, schedule: Q01DX009 (ip), vehicle: saline 103 % of control | dose: 4000.0 mg/kg/injection, schedule: Q01DX009 (ip), vehicle: saline 97 % of control

CC(=O)CC(C)=NCC(C)N=C(C)CC(C)=O.c1cc[c]([Sn][c]2ccccc2)cc1 (stereo not given)
inactive: dose: 5.0 mg/kg/injection, schedule: Q04DX003 (ip), vehicle: saline with Tween-80 119 % of control

Cn1c(C[N+](C)(C)C)cc2ccccc21
inactive: [1] 97 % of control | [2] 94 % of control | [3] 86 % of control

CC(CP(=O)(c1ccccc1)c1ccccc1)C(=O)O (stereo not given)
inactive: [3] 95 % of control | [8] 97 % of control | dose: 400.0 mg/kg/injection, schedule: Q01DX009 (ip), vehicle: saline with Tween-80 90 % of control

O=C(O)c1cc2ccccc2cn1
inactive: [6] 102 % of control | [7] 100 % of control
